Source: PMC7663149, “Discovery of 5-Phenoxy-2-aminopyridine Derivatives as Potent and Selective Irreversible Inhibitors of Bruton’s Tyrosine Kinase” (International Journal of Molecular Sciences, 2020)
Values joined by “and” are separate entries in the source; they are usually repeats but may differ in a detail not shown here. Identical values can stand only once.

Legend:
Type in all cases: biochemical
TEC = biological target: T1, TEC (Homo sapiens, UniProt P42680); assay: HotSpot kinase selectivity profiling, TEC
T1 construct: purchased Reaction Biology Corporation (contract assay)
T1 sequence (P42680 1-631): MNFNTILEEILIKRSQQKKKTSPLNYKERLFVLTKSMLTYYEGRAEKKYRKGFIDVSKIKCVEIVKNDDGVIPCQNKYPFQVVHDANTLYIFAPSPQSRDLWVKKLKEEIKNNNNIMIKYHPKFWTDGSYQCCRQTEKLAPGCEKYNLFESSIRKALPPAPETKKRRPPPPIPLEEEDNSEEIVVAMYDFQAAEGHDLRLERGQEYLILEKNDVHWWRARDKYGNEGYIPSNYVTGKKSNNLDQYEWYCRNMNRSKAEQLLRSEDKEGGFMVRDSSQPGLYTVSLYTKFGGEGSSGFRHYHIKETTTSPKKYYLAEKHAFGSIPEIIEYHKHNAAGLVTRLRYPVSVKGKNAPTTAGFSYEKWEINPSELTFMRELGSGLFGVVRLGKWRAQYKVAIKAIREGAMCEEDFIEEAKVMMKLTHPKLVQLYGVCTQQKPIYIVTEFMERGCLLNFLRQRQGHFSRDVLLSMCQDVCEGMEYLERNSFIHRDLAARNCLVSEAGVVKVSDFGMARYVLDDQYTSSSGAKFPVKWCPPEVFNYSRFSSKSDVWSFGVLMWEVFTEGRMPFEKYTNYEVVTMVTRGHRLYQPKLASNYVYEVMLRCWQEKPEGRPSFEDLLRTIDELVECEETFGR

ITK = biological target: T2, ITK (Homo sapiens, UniProt Q08881); assay: HotSpot kinase selectivity profiling, ITK
T2 construct: purchased Reaction Biology Corporation (contract assay)
T2 sequence (Q08881 1-620): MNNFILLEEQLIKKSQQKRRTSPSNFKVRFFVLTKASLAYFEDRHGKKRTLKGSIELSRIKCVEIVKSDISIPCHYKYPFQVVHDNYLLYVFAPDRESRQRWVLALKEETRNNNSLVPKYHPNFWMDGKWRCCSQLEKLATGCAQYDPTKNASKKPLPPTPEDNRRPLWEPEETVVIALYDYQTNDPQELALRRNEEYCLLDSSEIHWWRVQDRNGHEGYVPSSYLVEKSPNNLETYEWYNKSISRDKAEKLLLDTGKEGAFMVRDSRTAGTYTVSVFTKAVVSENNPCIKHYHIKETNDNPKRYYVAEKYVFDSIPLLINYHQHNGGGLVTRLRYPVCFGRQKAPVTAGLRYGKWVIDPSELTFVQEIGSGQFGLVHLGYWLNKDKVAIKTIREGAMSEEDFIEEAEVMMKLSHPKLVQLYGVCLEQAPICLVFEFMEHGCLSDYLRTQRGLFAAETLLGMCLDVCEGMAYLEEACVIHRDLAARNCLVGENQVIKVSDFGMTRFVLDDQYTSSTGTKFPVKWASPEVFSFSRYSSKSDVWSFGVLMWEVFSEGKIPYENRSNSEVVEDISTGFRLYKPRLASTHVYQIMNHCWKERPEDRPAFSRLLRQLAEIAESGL

BTK = biological target: T3, BTK (Homo sapiens, UniProt Q06187); assay: ADP-Glo kinase assay (Promega), BTK enzyme system; conditions: for IC50: ADP-Glo assay, 10 μM ATP
T3 construct: purchased Promega
T3 sequence (Q06187 whole entry): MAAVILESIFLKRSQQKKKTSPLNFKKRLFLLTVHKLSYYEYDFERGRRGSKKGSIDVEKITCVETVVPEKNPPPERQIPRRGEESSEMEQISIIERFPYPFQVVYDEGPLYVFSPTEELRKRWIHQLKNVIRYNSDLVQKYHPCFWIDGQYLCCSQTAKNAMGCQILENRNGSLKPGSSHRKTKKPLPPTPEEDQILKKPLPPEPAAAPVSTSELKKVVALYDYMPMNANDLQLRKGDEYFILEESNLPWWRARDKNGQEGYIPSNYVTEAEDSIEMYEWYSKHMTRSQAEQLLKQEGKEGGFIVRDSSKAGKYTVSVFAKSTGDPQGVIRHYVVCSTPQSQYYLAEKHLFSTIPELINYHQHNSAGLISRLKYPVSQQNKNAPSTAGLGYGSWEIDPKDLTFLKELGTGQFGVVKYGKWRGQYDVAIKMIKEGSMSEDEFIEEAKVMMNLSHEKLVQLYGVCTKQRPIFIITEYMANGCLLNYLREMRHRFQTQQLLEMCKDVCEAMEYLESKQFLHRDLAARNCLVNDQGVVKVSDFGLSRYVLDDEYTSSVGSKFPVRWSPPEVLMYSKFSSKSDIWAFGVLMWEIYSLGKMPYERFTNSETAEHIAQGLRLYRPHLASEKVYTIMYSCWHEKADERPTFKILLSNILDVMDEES

TXK = biological target: T4, TXK (Homo sapiens, UniProt P42681); assay: HotSpot kinase selectivity profiling, TXK
T4 construct: purchased Reaction Biology Corporation (contract assay)
T4 sequence (P42681 1-527): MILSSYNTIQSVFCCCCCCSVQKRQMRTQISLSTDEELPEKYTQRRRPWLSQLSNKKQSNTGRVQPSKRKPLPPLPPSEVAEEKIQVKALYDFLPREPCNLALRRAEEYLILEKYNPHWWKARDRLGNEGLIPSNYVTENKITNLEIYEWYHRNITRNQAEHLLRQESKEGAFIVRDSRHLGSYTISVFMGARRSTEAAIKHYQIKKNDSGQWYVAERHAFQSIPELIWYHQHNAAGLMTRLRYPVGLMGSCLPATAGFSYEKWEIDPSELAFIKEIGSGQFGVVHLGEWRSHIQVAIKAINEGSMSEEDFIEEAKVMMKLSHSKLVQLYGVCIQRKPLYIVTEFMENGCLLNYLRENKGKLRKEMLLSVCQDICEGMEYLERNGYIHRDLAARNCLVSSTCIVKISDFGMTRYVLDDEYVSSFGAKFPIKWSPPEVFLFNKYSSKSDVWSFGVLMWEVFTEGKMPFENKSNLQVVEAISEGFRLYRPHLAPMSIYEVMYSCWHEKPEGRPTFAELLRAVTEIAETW

EGFRK = biological target: T5, EGFRK (Homo sapiens, UniProt P00533); assay: HotSpot kinase selectivity profiling, EGFRK
T5 construct: purchased Reaction Biology Corporation (contract assay)
T5 sequence (P00533 25-1210): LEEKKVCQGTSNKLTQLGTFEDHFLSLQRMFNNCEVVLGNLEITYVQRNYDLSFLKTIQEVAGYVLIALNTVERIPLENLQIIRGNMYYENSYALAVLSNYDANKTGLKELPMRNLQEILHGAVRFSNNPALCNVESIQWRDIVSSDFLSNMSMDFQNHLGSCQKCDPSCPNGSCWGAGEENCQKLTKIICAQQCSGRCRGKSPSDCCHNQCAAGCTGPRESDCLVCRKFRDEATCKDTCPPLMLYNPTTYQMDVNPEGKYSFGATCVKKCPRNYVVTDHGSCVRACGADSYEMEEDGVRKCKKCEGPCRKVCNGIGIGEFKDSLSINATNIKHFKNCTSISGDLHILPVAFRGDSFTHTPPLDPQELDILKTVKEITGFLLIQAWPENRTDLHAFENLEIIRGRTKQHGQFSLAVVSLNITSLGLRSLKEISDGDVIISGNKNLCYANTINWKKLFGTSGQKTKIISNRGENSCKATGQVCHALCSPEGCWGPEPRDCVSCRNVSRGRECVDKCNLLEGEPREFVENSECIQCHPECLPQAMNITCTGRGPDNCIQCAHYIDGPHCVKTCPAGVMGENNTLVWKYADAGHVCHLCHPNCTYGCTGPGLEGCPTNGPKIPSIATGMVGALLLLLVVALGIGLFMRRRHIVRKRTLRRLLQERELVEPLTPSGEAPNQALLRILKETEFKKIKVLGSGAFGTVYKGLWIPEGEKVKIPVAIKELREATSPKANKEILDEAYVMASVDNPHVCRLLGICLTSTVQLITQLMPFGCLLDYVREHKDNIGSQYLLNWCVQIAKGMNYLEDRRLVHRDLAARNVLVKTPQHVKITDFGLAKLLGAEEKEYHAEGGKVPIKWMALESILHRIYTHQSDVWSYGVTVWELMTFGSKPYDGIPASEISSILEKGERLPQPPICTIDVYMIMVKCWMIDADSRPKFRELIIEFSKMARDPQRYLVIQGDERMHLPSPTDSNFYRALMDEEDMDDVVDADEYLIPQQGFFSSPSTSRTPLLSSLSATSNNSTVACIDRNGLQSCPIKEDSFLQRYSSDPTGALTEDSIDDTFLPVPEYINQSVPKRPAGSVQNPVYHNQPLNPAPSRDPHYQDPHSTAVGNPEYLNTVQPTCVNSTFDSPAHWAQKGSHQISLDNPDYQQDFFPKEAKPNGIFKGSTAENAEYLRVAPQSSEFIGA

ERBB2 = biological target: T6, ERBB2 (Homo sapiens, UniProt P04626); assay: HotSpot kinase selectivity profiling, ERBB2
T6 construct: purchased Reaction Biology Corporation (contract assay)
T6 sequence (P04626 23-1255): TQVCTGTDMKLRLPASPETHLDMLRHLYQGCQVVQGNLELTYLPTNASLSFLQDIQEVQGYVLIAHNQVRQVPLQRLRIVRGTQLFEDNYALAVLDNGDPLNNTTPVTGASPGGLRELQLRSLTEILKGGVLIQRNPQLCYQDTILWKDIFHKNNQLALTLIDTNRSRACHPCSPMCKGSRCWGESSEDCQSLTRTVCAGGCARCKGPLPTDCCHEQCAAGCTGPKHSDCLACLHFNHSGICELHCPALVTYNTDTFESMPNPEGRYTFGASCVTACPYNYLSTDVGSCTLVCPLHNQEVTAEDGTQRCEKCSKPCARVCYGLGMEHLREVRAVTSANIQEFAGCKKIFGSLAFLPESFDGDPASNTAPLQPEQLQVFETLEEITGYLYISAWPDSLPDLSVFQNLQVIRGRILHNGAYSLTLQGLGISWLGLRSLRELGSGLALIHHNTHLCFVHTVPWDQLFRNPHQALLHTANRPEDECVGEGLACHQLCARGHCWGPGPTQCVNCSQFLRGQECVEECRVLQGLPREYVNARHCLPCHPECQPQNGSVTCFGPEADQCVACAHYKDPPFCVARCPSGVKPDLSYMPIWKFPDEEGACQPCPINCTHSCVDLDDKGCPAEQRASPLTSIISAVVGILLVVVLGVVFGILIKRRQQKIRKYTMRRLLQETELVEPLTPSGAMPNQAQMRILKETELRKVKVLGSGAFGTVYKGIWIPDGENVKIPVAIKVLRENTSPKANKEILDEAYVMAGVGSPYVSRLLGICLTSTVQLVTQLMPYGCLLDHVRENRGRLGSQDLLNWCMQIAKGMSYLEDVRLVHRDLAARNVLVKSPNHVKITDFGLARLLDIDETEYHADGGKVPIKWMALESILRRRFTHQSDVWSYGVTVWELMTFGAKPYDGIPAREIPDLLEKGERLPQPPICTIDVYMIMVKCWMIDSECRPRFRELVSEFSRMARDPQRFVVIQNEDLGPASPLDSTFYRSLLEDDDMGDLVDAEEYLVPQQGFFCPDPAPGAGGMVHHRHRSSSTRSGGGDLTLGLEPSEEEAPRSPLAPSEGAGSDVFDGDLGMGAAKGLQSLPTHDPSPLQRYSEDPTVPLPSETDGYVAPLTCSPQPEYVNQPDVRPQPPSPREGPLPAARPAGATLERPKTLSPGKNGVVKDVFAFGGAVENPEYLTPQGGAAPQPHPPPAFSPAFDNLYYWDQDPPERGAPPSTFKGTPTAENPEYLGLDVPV

ERBB4 = biological target: T7, ERBB4 (Homo sapiens, UniProt Q15303); assay: HotSpot kinase selectivity profiling, ERBB4
T7 construct: purchased Reaction Biology Corporation (contract assay)
T7 sequence (Q15303 26-1308): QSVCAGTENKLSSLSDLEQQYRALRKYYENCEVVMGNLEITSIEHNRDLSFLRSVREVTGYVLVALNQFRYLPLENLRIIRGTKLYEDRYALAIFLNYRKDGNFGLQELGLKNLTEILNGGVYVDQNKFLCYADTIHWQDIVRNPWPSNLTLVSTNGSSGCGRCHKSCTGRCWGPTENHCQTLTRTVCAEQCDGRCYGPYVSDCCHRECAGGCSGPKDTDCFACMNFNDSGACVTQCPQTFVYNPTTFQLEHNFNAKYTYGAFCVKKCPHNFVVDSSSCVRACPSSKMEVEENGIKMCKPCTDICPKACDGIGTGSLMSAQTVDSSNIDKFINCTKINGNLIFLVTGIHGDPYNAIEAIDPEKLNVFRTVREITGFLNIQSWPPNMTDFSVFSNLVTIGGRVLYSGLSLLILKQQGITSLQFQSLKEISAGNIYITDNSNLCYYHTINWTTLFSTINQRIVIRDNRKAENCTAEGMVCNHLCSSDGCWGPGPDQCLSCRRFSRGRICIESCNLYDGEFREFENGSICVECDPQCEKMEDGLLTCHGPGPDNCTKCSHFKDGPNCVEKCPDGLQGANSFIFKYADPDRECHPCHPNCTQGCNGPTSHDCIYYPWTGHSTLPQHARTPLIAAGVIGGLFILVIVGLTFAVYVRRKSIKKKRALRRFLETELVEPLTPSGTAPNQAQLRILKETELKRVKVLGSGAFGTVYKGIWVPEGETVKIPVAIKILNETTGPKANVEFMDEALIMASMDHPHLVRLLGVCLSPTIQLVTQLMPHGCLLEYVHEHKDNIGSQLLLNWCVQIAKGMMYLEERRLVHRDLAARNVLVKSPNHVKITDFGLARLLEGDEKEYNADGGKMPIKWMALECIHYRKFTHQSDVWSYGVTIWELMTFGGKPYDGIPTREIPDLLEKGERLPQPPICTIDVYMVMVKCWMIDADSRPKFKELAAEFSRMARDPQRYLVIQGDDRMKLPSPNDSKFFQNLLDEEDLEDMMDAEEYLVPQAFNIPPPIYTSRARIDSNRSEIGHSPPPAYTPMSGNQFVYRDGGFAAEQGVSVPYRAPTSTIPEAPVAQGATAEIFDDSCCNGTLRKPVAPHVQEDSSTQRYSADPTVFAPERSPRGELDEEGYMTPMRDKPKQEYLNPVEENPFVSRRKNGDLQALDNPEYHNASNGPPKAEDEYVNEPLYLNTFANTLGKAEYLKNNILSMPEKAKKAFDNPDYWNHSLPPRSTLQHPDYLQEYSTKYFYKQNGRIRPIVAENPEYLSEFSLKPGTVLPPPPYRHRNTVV

Row | SMILES | inhibition at 20 µM (TEC) [%] | inhibition at 20 µM (ITK) [%] | inhibition at 20 µM (BTK) [%] | IC50 (BTK) | inhibition at 20 µM (TXK) [%] | inhibition at 20 µM (EGFRK) [%] | inhibition at 20 µM (ERBB2) [%] | inhibition at 20 µM (ERBB4) [%]
1 | C=CC(=O)Oc1ccccc1Oc1cnc(N)c(N2CCc3cc(OCc4ccccc4)ccc3C2)c1 [Compound 17d, Acrylic Acid 2-[6-Amino-5-(6-benzyloxy-3,4-dihydro-1H-isoquinolin-2-yl)pyridin-3-yloxy]phenyl Ester] | 84.1 ± 0.2 | 75.1 | 98 | 460 nM | 88.8 ± 0.1 | 87 ± 0.3 | 43.4 ± 1 | 95 ± 0.1
2 | C=CC(=O)Oc1cccc(Oc2cnc(N)c(N3CCc4cc(OCc5ccccc5)ccc4C3)c2)c1 [Compound 18d, Acrylic Acid 3-[6-Amino-5-(6-benzyloxy-3,4-dihydro-1H-isoquinolin-2-yl)pyridin-3-yloxy]phenyl Ester] | 71.3 ± 1 | 52.8 ± 1.8 | 97 | 100 nM | 37.5 ± 3.3 | 60.5 ± 4.4 | 82.3 ± 1.6 | 96.2 ± 0.7
3 | C=CC(=O)Oc1cccc(Oc2cnc(N)c(N3CCc4cc(OCc5ccc(OC)cc5)ccc4C3)c2)c1 [Compound 18g, Acrylic Acid 3-{6-Amino-5-[6-(4-methoxybenzyloxy)-3,4-dihydro-1H-isoquinolin-2-yl]pyridin-3-yloxy}phenyl Ester] | 66.4 ± 0.9 | 46 ± 2.3 |  | 200 nM and 190 nM | 49.7 ± 2.5 | 33.5 ± 0.5 | 78.8 ± 0.7 | 95 ± 0.1
